Measured values published in publication PMC12323867 (RSC Medicinal Chemistry, 2025).
Entries after “also recorded” stand apart in the source; their conditions may differ. Read-outs that look alike come from different tables or passages of the source.

Assays:
H3K4me2 in HCT116 cells = assay: Histone methylation H3K4me2 by western blot; type: cell-based, human; conditions: HCT116, TCP series conditions (0.2–20 μM)
Procedure: We next screened 25–33 and SP2509 over a concentration range of 0.1–10 μM in HCT116 cells (obtained from ATCC, CCL-247) and determined LSD1 abundance after 24 hours with an antibody for LSD1 (Fig. S4 ^†). […] Using the same conditions, we also determined the effects of SP2509, 25, 27, 28, 30 and 31 on histone H3 lysine 4 dimethyl (H3K4me2) a validated substrate for LSD1 using a specific antibody for H3K4me2 (Fig. S4 ^†).
Compounds 39–41, 49, 52 and 54 were screened for LSD1 degradation in HCT116 cells using a specific antibody for LSD1. This was performed side-by-side with TCP. Compounds were tested at concentration ranges of 0.2–20 μM and LSD1 abundance was quantified at 24 hours (Fig. S5 ^†). 49, 52 and 54 were also evaluated at 48 and 72 hours. […] We also determined the effects of these compounds on the histone methyl marker H3K4me2 (Fig. S5 and S6 ^†).
(§1) 2.5 Protocols for LSD1 degradation and histone methylation in HCT116 cells HCT116 human colon carcinoma cells were grown in Dulbecco’s Modified Eagle Medium (DMEM) supplemented with Fetal Bovine Serum (FBS, 10% final concentration) and 1x glutamine/penicillin/streptomycin. Cells were incubated at 37 °C and 5% CO2. Cells were treated with compounds (0.1-20 µM) with a final DMSO volume of 0.04%. DMSO (0.04%) treated and untreated (WT) cells were included as controls.
(§2) HCT116 cells were seeded into six well plates (400000 cells per well) and after requisite compound treatment time (24h, 48h, 72h) cells were harvested and either snap-frozen in liquid nitrogen or lysed in lysis buffer (50mM Tris-HCl, 150 mM NaCl, 0.5% NP-40, 0.5% Triton X-100 + protease inhibitor) on ice for 30 mins. This was centrifuged (15000 rpm, 4 °C, 15 mins) and the supernatant collected.
(§3) H2SO4 (0.4 M, equal volume) was added to the pellets for histone extraction and the tubes incubated overnight at 4 °C. Following this, the histone extract was centrifuged (15000 rpm, 4 °C, 15 mins) and the supernatant collected. Protein concentrations of whole cell extract were quantified via Bradford Assay using BIO-RAD Protein Assay Dye Reagent Concentrate.
(§4) Western blots were run on NuPAGE 4-12% Bis-Tris gels, with 30 µg of protein (whole cell extract) or an equivalent volume of histone extract loaded per lane, with all extracts dyed with 4x NuPAGE LDS Sample Buffer. PageRuler Plus Prestained Ladder was used as a reference. Gel electrophoresis was carried out at 140 V for 60-90 mins, following which the proteins were transferred onto nitrocellulose membrane at 30 V for 60 mins. Membranes were blocked in LI-COR Intercept Blocking Buffer overnight at RT on a roller, following which the membrane was probed with primary antibodies for 1 h at RT. The membrane was washed with PBS + 0.1% Tween (3 x 10 mins), then incubated with secondary antibodies for 50 mins at RT. The membrane was washed again (PBS Tween 2 x 10 mins, PBS 1 x 10 mins) following which the blot was visualised with the Odyssey Infrared Imaging System. Image processing and quantification was performed with ImageStudio Lite. […]
(§5) a-tubulin (mouse) – Sigma, t5168 (1:10000 dilution)

HCT116 cells = assay: CTG cell viability assay; type: cell-based, human; conditions: HCT116, CellTiter-Glo, 0.0041-10 uM, 24-48 h (Fig. S3)
Procedure: 2.4. CTG cell viability assays
HCT116 cells were seeded onto 96-well plates at a density of 2000 cells/well and allowed 24 h to settle. Cells were then treated with LSD1 inhibitors (0.0041-10 uM) alongside WT, DMSO and cell free control wells for 24-48 h. After this time, plates were equilibrated to RT for 30 mins, then CellTiter-Glo (Promega, G9242) reagent (5 uL/100 uL media) was added. Cells were lysed on an orbital shaker for 10 mins, then incubated at RT for 2 mins to allow luminescence to stabilise, following which luminescence was recorded on a HiDEX Sense microplate reader. To obtained plotted values, luminescence of each tested well was divided by that of the DMSO control, which were plotted against concentration using GraphPad Prism. […] was applied to obtain apparent IC50 values where possible.
Figure S3. Cell viability dose response curves
(1 picture or pasted object on this page, not shown here)

LSD1 = tested on: LSD1; design: method as in PMID 38742921; conditions: cited from earlier work
[1] = target: T1, HDAC1-CoREST-LSD1 complex (Homo sapiens, UniProt O60341); assay: LSD1 HRP-coupled demethylase assay, TCP analogues; type: biochemical; conditions: for inhibition at 50 µM: read-out: LSD1 inhibition at 50 μM
T1 construct: full length native LSD1 (UniProt ID: O60341); made in house; host or cells: HEK 293F cells (co-transfection, pcDNA3 vectors)
Procedure: We then evaluated LSD1 inhibition in the LSD1-HDAC1-CoREST complex using the established horseradish peroxidase (HRP) assay.[8]
2. Supplementary Information: Biology
2.1. LSD-HDAC1-CoREST expression and purification
Lysis Buffer (Buffer A) Wash Buffer (Buffer B)
• 50 mM Tris/Cl pH 7.5 • 50 mM Tris/Cl pH 7.5
• 50 mM Potassium Acetate • 50 mM Potassium Acetate […]
Cleavage Buffer (Buffer C) Gel Filtration Buffer (Buffer D)
• 50 mM Tris/Cl pH 7.5 Filtered at vacuum.
• 50 mM Potassium Acetate • 50 mM Tris/Cl pH 7.5
• 5 % v/v Glycerol • 50 mM Potassium Acetate
• 0.5 mM tris(2- • 0.5 mM TCEP carboxyethyl)phosphine (TCEP)
The CoREST ternary complex was comprised of full length native LSD1 (UniProt ID: O60341), full length HDAC1 (UniProt ID: Q13547) and N-terminally truncated RCOR1 (86-485aa) (UniProt ID:
Q9UKL0). Protein constructs were cloned into pcDNA3 vector. The RCOR1 constructs contained an N-terminal (His)10(Flag)3 tag followed by a Tev protease cleavage site. The constructs for ternary complex were co-transfected into suspension-grow HEK 293F cells (Thermofisher Scientific) with polyethylenimine (PEI) (Sigma) and harvested after 48 hours. This section of the procedure was carried out as described previously in literature.11,12
Cell pellets from 1.2 L culture were defrosted, and buffer A (30 mL) was added. The solution was sonicated (Soniprep 150) in an beaker of ice using a 9 mm probe at 10 ampules; operated with 10 […]
Components and concentrations for the HRP-coupled demethylase assay […]
The assay components are shown at their final concentrations per well in the table above. CoREST complex (HDAC 1/RCOR1/LSD1) was added to the assay buffer alongside either DMSO or the relevant inhibitor at the desired concentration on black-walled 96 well plates. Alongside this was another control, with DMSO but no CoREST or inhibitor. Plates were spun to 3000 rpm between each addition of a reagent. Plates were incubated at 20 °C for 30 mins, following which HRP/Amplex Ultrared (1:1 mixture) and peptide was added. Plates were spun, then read on an PerkinElmer 2030 Explorer plate reader, with excitation of 530 nm and […] of 590 nm, with 7 readings taken over […]
Components, where bought in, are listed below:
HRP – Pierce™ Horseradish Peroxidase, Invitrogen
H3K4me2 peptide – Histone H3 dimethyl lysine-4 peptide, Enzo Life Sciences Amplex UltraRed, ThermoFisher Scientific
To the assay buffer was added HRP/AMP in each well to concentrations equal to those in above, following which hydrogen peroxide solution (diluted from 3% hydrogen peroxide solution into a 20 mM stock) was added, in a 1 in 3 dilution series with final concentrations starting from 3 mM.
Negative control wells contained either 100% buffer or as above with no hydrogen peroxide solution.

LSD1 in HCT116 cells = target: T2, LSD1 in HCT116 cells (Homo sapiens, UniProt O60341); assay: LSD1 degradation (LSD1 abundance) by western blot; type: cell-based
T2 construct: host or cells: HCT116
Procedure: Using the same conditions, we also determined the effects of SP2509, 25, 27, 28, 30 and 31 on histone H3 lysine 4 dimethyl (H3K4me2) a validated substrate for LSD1 using a specific antibody for H3K4me2 (Fig. S4 ^†).
Compounds were tested at concentration ranges of 0.2–20 μM and LSD1 abundance was quantified at 24 hours (Fig. S5 ^†). 49, 52 and 54 were also evaluated at 48 and 72 hours. […] We also determined the effects of these compounds on the histone methyl marker H3K4me2 (Fig. S5 and S6 ^†).
as §1, with “with compounds (0.1-20 µM) with a final DMSO volume of 0.04%. DMSO (0.04%) treated and untreated (WT) cells were included as controls.” left out
untreated (WT) cells were included as controls.
as §2
as §3, with “Concentrate. […]” for “Concentrate.”
as §4, with “or” for “Western blots were run on NuPAGE 4-12% Bis-Tris gels, with 30 µg of protein (whole cell extract) or”
as §5

[2] = complex 50 nM, mean ± SD from three replicates
[3] = HCT116, 0.2–20 μM, 24 hours, LSD1 antibody

IC50 [1, 2] [nM]	inhibition at 50 µM ([1]; single concentration 50 μM, complex 50 nM, compared to no compound treatment control) [%]	LSD1 degradation (LSD1 in HCT116 cells; [3])	LSD1 degradation (LSD1 in HCT116 cells; HCT116, 48 and 72 hours)	IC50 ([1]; complex 50 nM) [nM]	SMILES	H3K4me2 histone methyl marker (H3K4me2 in HCT116 cells)	cytotoxic effects in cells (HCT116 cells)	ability to increase H3K4me2 on peptides and nucleosomes (LSD1)	inhibition at 50 µM [1] [%]
					N[C@@H]1C[C@H]1c1ccccc1 (racemic) [TCP, tranylcypromine]	neither did we observe changes; also recorded: did not increase H3K4me2 levels	not observed	increased H3K4me2 levels	
					COc1ccc(-c2c(-c3ccc(C#N)c(F)c3)nc(N3CCC(N)CC3)n(C)c2=O)cc1F [CC-90011]			increased H3K4me2 levels	
					N[C@H]1CC[C@H](N[C@@H]2C[C@H]2c2ccccc2)CC1 [ORY1001, reference compound]	neither did we observe changes; also recorded: did not increase H3K4me2 levels	not observed		100
63	100	no degradation	no degradation		Cc1ncsc1-c1ccc(CNC(=O)[C@@H]2C[C@@H](O)CN2C(=O)[C@@H](NC(=O)COCCOCCOCCNC(=O)c2ccc([C@@H]3C[C@H]3N)cc2)C(C)(C)C)cc1 [compound 49]	no changes			
282 ± 40		no degradation	no degradation	280	N[C@@H]1C[C@H]1c1ccc(C(=O)NCCc2ccc(OCCCCCCCCCCCC(=O)NCCNc3cccc4c3C(=O)N(C3CCC(=O)NC3=O)C4=O)cc2)cc1 (some centres unmarked) [compound 54]	no changes			
